Assay results published in patent US20050282734A1 (priority 1998, published 2005).

Experiments:
[1] = Magri et al. (1988); cited from earlier work
HSA = HSA (Homo sapiens, UniProt P02768); experiment: Effect of antioxidants on HSA dimerization at acidic pH (SDS-PAGE, reducing and non-reducing); details: acidification of commercial HSA to pH 3.0-3.3; compared with ascorbic acid, L-cysteine, sodium thiosulfate
Protocol: This experiment evaluated a number of conditions to maintain HSA in the formulation, primarily in the monomeric form.
Evaluation of different antioxidants with undefatted and defatted acidic HSA preparations. • The following reducing reagents were tested: ascorbic acid, L-cysteine, dithioerythritol (DTE) and dithiothreitol (DTT), sodium metabisulfite, sodium thiosulfate, and thioacetic acid. • Different preparations of HSA (10%), including HSA-A, HSA-B, and HSA-D, were treated with antioxidant at different concentrations, ranging from 2 to 40 mM. • The HSA solutions were incubated at 2-8° C. for up to a month, and prevention of dimerization was analyzed by SDS-PAGE under both reducing and non-reducing conditions.
Analysis of the effect of antioxidant on prevention of HSA dimerization at low pH. • 5.
3.3 Add 80 μL of antioxidant solution to the 1.92 mL of HSA-A (20%) in 2×9′ (18) the 15-mL conical tubes as follows:
• Sample 9 will be the control sample for either HSA-B or HSA-D, untreated. • 3.4 Incubate the samples at 2-8° C. for at least 4 h. • 3.5 In the meantime, • 3.5.1 Prepare material for acidification and defatting of HSA. • 3.5.2 Prepare another 2×9 (18) set of 15-mL conical centrifuge tubes (sterile). […]

[2] = Solubility of paclitaxel in aqueous ethanol saline solution (visual turbidity); format: physicochemical
Protocol: Reagents Preparation • 1. […] A 20-ml physiological saline stock solution was also prepared in a small bottle (or flask) and designated the 1× saline stock solution.
4. The tubes were incubated at room temperature and observed at 0 h, 1 h and 3 h for precipitate formation. The results were recorded as + or − turbidity formation.

synoviocytes = details: in vitro, cited from earlier work
collagenase = details: 10^−7 M paclitaxel, chondrocytes stimulated by tumor necrosis factor and interleukin-1; cited from earlier work
[3] = molecular target: T1, human serum albumin (HSA) (Homo sapiens, UniProt P02768); experiment: Paclitaxel binding to HSA: ultrafiltration (10 kDa), free and total Ptx by ELISA and/or reverse-phase HPLC; set-up: purchased Desert Biologicals, Phoenix, Ariz; details: pH 7.1
T1 sequence (P02768 25-609): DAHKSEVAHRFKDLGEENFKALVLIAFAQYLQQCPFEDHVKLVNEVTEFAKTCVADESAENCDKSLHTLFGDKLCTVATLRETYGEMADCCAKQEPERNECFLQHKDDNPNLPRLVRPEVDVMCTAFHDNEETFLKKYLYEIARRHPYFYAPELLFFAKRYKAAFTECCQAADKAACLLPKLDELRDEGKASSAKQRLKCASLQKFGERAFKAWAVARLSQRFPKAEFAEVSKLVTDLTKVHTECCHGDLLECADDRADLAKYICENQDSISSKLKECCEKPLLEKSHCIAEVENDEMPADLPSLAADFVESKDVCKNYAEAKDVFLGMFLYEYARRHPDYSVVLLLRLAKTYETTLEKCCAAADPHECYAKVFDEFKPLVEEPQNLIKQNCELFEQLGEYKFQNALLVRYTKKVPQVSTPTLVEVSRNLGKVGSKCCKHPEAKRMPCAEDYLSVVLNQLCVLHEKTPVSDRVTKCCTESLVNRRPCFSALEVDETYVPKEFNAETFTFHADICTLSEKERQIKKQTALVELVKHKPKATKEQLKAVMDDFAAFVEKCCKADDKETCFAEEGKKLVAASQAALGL
Protocol: • 1. […] Procedure • 1. […] Saline in water could also be added to the test tubes so that all the test tubes have substantially identical sodium chloride concentrations. • 3. […] The test tubes were covered with a piece of parafilm or in stoppered serum bottles and then incubated at room temperature, with occasional shaking (2 to 3 times). • 6. At 0 hr, 3 hr, and/or 18/24 hr of incubation, the samples were observed qualitatively for precipitate formation. • 7. At the end of the 18-24 hr incubation period, the reaction mixtures were analyzed for turbidity at 600 nm using a Shimadzu 160U UV/visible spectrophotometer (NBI Track #F1174). • 8. […] Analytical methods.
Procedure • 1. […] The test tubes were covered with a parafilm and then incubated at room temperature, with occasional shaking. Alternatively, the mixtures were prepared in stoppered serum vials. • 6.
This unbound fraction can be quantitated by reverse phase HPLC, and/or ELISA.

[4] = molecular target: T1, human serum albumin (HSA); experiment: Recovery of soluble Ptx and binding to HSA by liquid scintillation counting (radioactive Ptx; R, S, F fractions)
[5] = mice, co-administered P-glycoprotein blocker; cited from earlier work

Chain of HSA (P02768 25-609): as above

SMILES: CC(=O)O[C@H]1C(=O)[C@@]2(C)[C@H]([C@H](OC(=O)c3ccccc3)[C@]3(O)C[C@H](OC(=O)[C@H](O[Si](C)(C)C(C)(C)C)[C@@H](NC(=O)c4ccccc4)c4ccccc4)C(C)=C1C3(C)C)[C@]1(OC(C)=O)CO[C@@H]1C[C@@H]2O [2′-(t-butyldimethylsilyl)taxol]
- in vivo activity compared with paclitaxel [1]: essentially inactive

SMILES: CC(=O)O[C@H]1C(=O)[C@@]2(C)[C@H]([C@H](OC(=O)c3ccccc3)[C@]3(O)C[C@H](OC(=O)[C@H](OC(=O)CCC(=O)O)[C@@H](NC(=O)c4ccccc4)c4ccccc4)C(C)=C1C3(C)C)[C@]1(OC(C)=O)CO[C@@H]1C[C@@H]2O [2′-succinyltaxol]
- in vivo activity compared with paclitaxel [1]: decreased in vivo activity

SMILES: O[C@H](CS)[C@@H](O)CS [DTE, dithioerythritol]
- effectiveness in minimizing the HSA dimerization reaction (HSA): most effective

SMILES: CC(=O)O[C@H]1C(=O)[C@@]2(C)[C@H]([C@H](OC(=O)c3ccccc3)[C@]3(O)C[C@H](OC(=O)[C@H](O)[C@@H](NC(=O)c4ccccc4)c4ccccc4)C(C)=C1C3(C)C)[C@]1(OC(C)=O)CO[C@@H]1C[C@@H]2O [Ptx, paclitaxel]
- time until paclitaxel solutions turned cloudy ([2]; 500 μg/ml paclitaxel, 20% ethanol or less, room temperature): ≤ 5 min
- paclitaxel concentration at which solutions remained clear for at least 3 hours ([2]; aqueous ethanol saline solutions, room temperature): ≤ 50 µg/mL
- paclitaxel concentration at which clear solutions were obtained ([2]; aqueous ethanol solutions (5% to 25%), after a 1-h incubation at room temperature): less than 100 μg/ml
- solubility of paclitaxel at 500 μg/ml ([2]; saline solution containing up to 25% ethanol, after 1 hr): not soluble
- concentration cytotoxic to the synoviocytes (synoviocytes): 10^−6 to 10^−5 M
- concentration inhibiting proliferation of synoviocytes and inducing apoptosis (synoviocytes; concentrations as low as): 10^−7 M
- reduction of collagenase expression (collagenase): over 50%
- recovery at 50 μg/mL ([3]; defatted human serum albumin (HSA) solution): 73%
- recovery at 50 μg/mL ([3]; non-defatted human serum albumin (HSA) solution): 89%
- chemical stability of Ptx in alkaline pH formulations [4]: poor

SMILES: C/C=C/C[C@@H](C)C(=O)[C@H]1C(=O)N[C@@H](C(C)C)C(=O)N(C)CC(=O)N(C)[C@@H](CC(C)C)C(=O)N[C@@H](C(C)C)C(=O)N(C)[C@@H](CC(C)C)C(=O)N[C@@H](C)C(=O)N[C@H](C)C(=O)N(C)[C@@H](CC(C)C)C(=O)N(C)[C@@H](CC(C)C)C(=O)N(C)[C@@H](C(C)C)C(=O)N1C [SDZ PSC 833]
- increase in oral bioavailability of paclitaxel [5]: 10 fold
